Test results from patent publication US12054466B2, “Compounds for the treatment of clostridium difficile infection” (University of Notre Dame du Lac, priority 2016, dated 2024).
Where two headings read alike, the source gives them in different places.

Key:
Format in all cases: cell-based
[1] = system: Veillonella sp. HM-49; assay: MIC against common gut bacteria
[2] = system: Bacteroides caccae; assay: MIC against common gut bacteria; conditions: read-out: MIC
[3] = system: C. difficile BAA-1803; assay: MIC, broth microdilution; conditions: Clostridioides difficile, BAA1803, C. difficile BAA-1803 (NAP1, ribotype 027)
[4] = system: C. difficile BAA-1801; assay: MIC, broth microdilution; conditions: Clostridioides difficile, BAA1801, C. difficile BAA-1801 (nontoxigenic)
[5] = system: Lactobacillus gasseri HM-644; assay: MIC against common gut bacteria
[6] = system: C. difficile NR49302; assay: MIC, broth microdilution; conditions: Clostridioides difficile, C. difficile NR49302 (NAP4, ribotype 020)
[7] = system: C. difficile NR49305; assay: MIC, broth microdilution; conditions: Clostridioides difficile, C. difficile NR49305 (NAP6, ribotype 002)
[8] = system: Bacteroides fragilis HM-709; assay: MIC against common gut bacteria; conditions: HM709; Bacteroides fragilis HM-709; read-out: MIC
[9] = system: C. difficile BAA-1804; assay: MIC, broth microdilution; conditions: Clostridioides difficile, BAA1804, C. difficile BAA-1804
[10] = system: Bacteroides fragilis; assay: MIC against common gut bacteria; conditions: read-out: MIC
[11] = system: Fusobacterium nucleatum HM-992; assay: MIC against common gut bacteria; conditions: HM992; Fusobacterium nucleatum HM-992; read-out: MIC
[12] = system: Bacteroides eggerthii; assay: MIC against common gut bacteria; conditions: read-out: MIC
[13] = system: C. difficile BAA-1812; assay: MIC, broth microdilution; conditions: Clostridioides difficile, BAA1812, C. difficile BAA-1812
[14] = system: Eubacterium sp. HM-178; assay: MIC against common gut bacteria; conditions: SP.HM178
[15] = system: Corynebacterium sp. HM-784; assay: MIC against common gut bacteria; conditions: SP.HM784; Corynebacterium sp. HM-784; incubated aerobically; read-out: MIC
Method: Minimally-inhibitory concentrations. MICs for C. difficile strains and the common gut bacteria were determined using broth microdilution techniques as reported earlier using brucella broth supplemented with hemin and vitamin K or supplemented BHIS broth (Babakhani et al., J Antimicrob Chemother 2013, 68(3), 515). Lactobacillus MRS broth was used for lactobacillus strains. […] All incubations unless specified otherwise were carried out at 24 or 48 h at 37° C. in an anaerobic chamber (Whitley DG250 workstation, Microbiology International, Frederick, MD). Corynebacterium and lactobacillus species were incubated aerobically.

[16] = system: Bacteroides ovatus; assay: MIC against common gut bacteria; conditions: read-out: MIC
[17] = system: C. difficile ATCC43598; assay: MIC, broth microdilution; conditions: Clostridioides difficile, C. difficile ATCC43598
[18] = system: C. difficile NR49318; assay: MIC, broth microdilution; conditions: Clostridioides difficile, C. difficile NR49318 (NAP11, ribotype 106)
[19] = system: C. difficile NR49294; assay: MIC, broth microdilution; conditions: Clostridioides difficile, C. difficile NR49294 (NAP4, ribotype 014)
[20] = system: C. difficile BAA-1814; assay: MIC, broth microdilution; conditions: Clostridioides difficile, BAA1814, C. difficile BAA-1814
[21] = system: Bifidobacterium longum HM-846; assay: MIC against common gut bacteria; conditions: HM846; Bifidobacterium longum HM-846; read-out: MIC
[22] = system: Bacteroides vulgatus; assay: MIC against common gut bacteria; conditions: Phocaeicola vulgatus; Bacteroides vulgatus; read-out: MIC
[23] = system: Lactobacillus reuteri HM-102; assay: MIC against common gut bacteria
[24] = system: C. difficile BAA-1870; assay: MIC, broth microdilution; conditions: Clostridioides difficile, BAA1870, C. difficile BAA-1870 (NAP1, ribotype 27)
[25] = system: C. difficile NR49292; assay: MIC, broth microdilution; conditions: Clostridioides difficile, C. difficile NR49292 (NAP2, ribotype 001_072)
[26] = system: C. difficile NR49310; assay: MIC, broth microdilution; conditions: Clostridioides difficile, C. difficile NR49310 (NAP7, ribotype 078)
[27] = system: C. difficile ATCC43255; assay: MIC, broth microdilution; conditions: Clostridioides difficile, C. difficile ATCC43255

FC(F)(F)c1ccc(Oc2ccc(-c3noc(-c4ccc5[nH]ccc5c4)n3)cc2)cc1 [Compound 1]
not active: Activity against Veillonella sp. ([1]; in words) | Activity against Lactobacillus gasseri ([5]; in words) | Activity against Lactobacillus reuteri ([23]; in words)
0.2 µg/mL: MIC [21]
4 µg/mL: MIC [2] | MIC ([4]; 48 h, read-out: MIC at 48 h) | MIC ([7]; 48 h, read-out: MIC at 48 h) | MIC [10] | MIC [16] | MIC ([20]; 48 h, read-out: MIC at 48 h) | MIC ([24]; 48 h, read-out: MIC at 48 h)
1 µg/mL: MIC ([3]; 24 h, read-out: MIC at 24 h) | MIC ([6]; 24 h, read-out: MIC at 24 h) | MIC [11] | MIC ([17]; 24 h, read-out: MIC at 24 h) | MIC ([17]; 48 h, read-out: MIC at 48 h) | MIC ([19]; 24 h, read-out: MIC at 24 h) | MIC ([19]; 48 h, read-out: MIC at 48 h) | MIC ([25]; 24 h, read-out: MIC at 24 h)
> 12 µg/mL: MIC ([1]; SP.HM49, Veillonella sp. HM-49, read-out: MIC) | MIC ([5]; HM644, Lactobacillus gasseri HM-644, read-out: MIC) | MIC ([23]; Limosilactobacillus reuteri, HM102, Lactobacillus reuteri HM-102, read-out: MIC)
2 µg/mL: MIC ([3]; 48 h, read-out: MIC at 48 h) | MIC ([4]; 24 h, read-out: MIC at 24 h) | MIC ([6]; 48 h, read-out: MIC at 48 h) | MIC ([7]; 24 h, read-out: MIC at 24 h) | MIC [8] | MIC ([9]; 24 h, read-out: MIC at 24 h) | MIC ([9]; 48 h, read-out: MIC at 48 h) | MIC [12] | MIC ([13]; 24 h, read-out: MIC at 24 h) | MIC ([13]; 48 h, read-out: MIC at 48 h) | MIC [14] | MIC [15] | MIC ([18]; 24 h, read-out: MIC at 24 h) | MIC ([18]; 48 h, read-out: MIC at 48 h) | MIC ([20]; 24 h, read-out: MIC at 24 h) | MIC [22] | MIC ([24]; 24 h, read-out: MIC at 24 h) | MIC ([25]; 48 h, read-out: MIC at 48 h) | MIC ([26]; 24 h, read-out: MIC at 24 h) | MIC ([26]; 48 h, read-out: MIC at 48 h) | MIC ([27]; 24 h, read-out: MIC at 24 h) | MIC ([27]; 48 h, read-out: MIC at 48 h)
